Experimental data reported in US20130266636A1, “METHODS FOR BLOCKING CELL PROLIFERATION AND TREATING DISEASES AND CONDITIONS RESPONSIVE TO CELL GROWTH INHIBITION” (THE REGENTS OF THE UNIVERSITY OF CALIFORNIA, priority 2010, published 2013).

Legend:
c-Kit = c-Kit (Homo sapiens, UniProt P10721); settings: cited from earlier work
[1] = molecular target: T1, RAF dimerization (BRAF and CRAF) (Homo sapiens, UniProt P04049); assay: RAF dimerization, immunoblot of BRAF and CRAF immunoprecipitates from XPA-1 cells; type: cell-based; design: immunoblot analysis of BRAF and CRAF immunoprecipitates from XPA-1 cells; endogenous in cells; host or cells: XPA-1
Method: FIGS. 6 and 7 illustrate immunoblot analysis of CRAF immunoprecipitated from XPA-1 cells treated with KG5 and KG38.
FIG. 14 illustrates immunoblot analysis of BRAF and CRAF immunoprecipitates from XPA-1 cells treated with PD0325901, Sorafenib, L-779450, PLX4720, KG5 or KG1.
(§1) Immunoprecipitation and Immunoblot Analysis Cells were lysed in either NP40 lysis buffer (150 mM NaCl, 50 mM Tris Base pH 7.4, 1% NP40) or RIPA buffer (50 mM Tris pH 7.4, 100 mM NaCl, 0.1% SDS) supplemented with complete protease inhibitor mixture (Roche), 50 mM NaF and 1 mM Na3VO4 and centrifuged at 13,000×g for 10 min at 4° C. Protein concentration was determined by BCA assay. […] of protein were immunoprecipitated with […] of anti-Flag (Sigma), anti-CRAF (BD Pharmingen), anti-Plk1 (Abcam), anti-γ-Tubulin (sigma) or anti-cenpF (Santa Cruz) antibodies overnight at 4° C. followed by capture with 25 μl of protein A/G (Pierce). Beads were washed five times, eluted in boiling Laemmli buffer, resolved on 10% SDS-PAGE and immunoblotting was performed with anti-Plk1 antibody (Abcam), anti-CRAF antibody (BD Pharmingen), anti-Aurora A (Abcam), anti-phospho-S338 CRAF (Cell Signaling), anti-phospho-T210 Plk1 or anti-phospho-T288 Aurora A (Cell signaling) diluted 1:1000. For immunoblot analysis, […] of protein was boiled in […]

[2] = tested on: human colon (HCT-116), pancreatic (Mia-Paca2, FG, XPA-1, BXPC3), breast (MDA-MB-231) and brain (U251) cancer cell lines; assay: Cell cycle analysis of proliferating tumor cell lines treated with KG5; type: cell-based; settings: all proliferating tumor cell lines tested
Method: FIG. 40. Allosteric inhibition of RAF arrests proliferating cells at pro-metaphase. FIG. 40(a) Cell cycle analysis and G2/M quantification of human colon (HCT-116), pancreatic (Mia-Paca2, FG, XPA-1, BXPC3), breast (MDA-MB-231) and brain (U251) cancer cell lines untreated or treated for 20 hours with 5 μM of KG5. Error bars represent s.d. (n=4); * two tailed p value=0.0023 using Mann Whitney U test. FIG. 40(b) HCT-116 cells were cultured under low (30%) or high (90%) confluency and treated with 1 μM KG5 for 20 hours. […] Error bars represent s.d. (n=3); * two tailed p value=0.0021 using Mann Whitney U test. FIG. 40(c) HCT-116 and XPA-1 cells were treated for 20 hours with 1 μM of KG5, stained for α-tubulin/DNA, and cells arrested in pro-metaphase were quantified by confocal microscopy. Error bars represent s.d. (n=3); * two tailed p value=0.0008 using Mann Whitney U test. Lysates from the same cells were also analyzed by immunoblotting for the expression of the mitotic marker phospho-Histone H3 (inset). Data are representative of three independent experiments.
Cell cycle analysis was performed by flow cytometry following propidium iodide staining. Briefly, cells were harvested, fixed with ice cold methanol, treated for 45 min with 10 μg/ml of RNase and resuspended in PBS containing 10 μg/ml of PI, and analyzed by flow cytometry. […]

Plk1 = Plk1 localization, confocal microscopy and CenpF immunoprecipitates; type: cell-based, human
Source text: FIG. 46. CRAF regulates Plk1 activity and localization. FIG. 46(a) Plk1 kinase activity assay performed in WT and CRAF−/− MEFs. Error bars represent s.d. (n=3); * two tailed p value=0.029 using Mann Whitney U test. FIG. 46(b) Immunoblot analysis of XPA-1 cells asynchronous or arrested in mitosis by treatment with KG5, nocodazole or paclitaxel (referred to as Ncdzl and Ptxl respectively). pPlk1 refers to phospho-T210 Plk1 and pHH3 refers to phospho-Histone H3. Data are representative of three independent experiments. FIG. 46(c) Plk1 kinase activity assay performed in HCT-116 cells treated with nocodazole or nocodazole and KG5. Error bars represent s.d. (n=2); * two tailed p value=0.002 using Mann Whitney U test. FIG. 46(d) Immunoblot analysis of CenpF immunoprecipitates from HCT-116 cells untreated or treated with KG5. Data are representative of three independent experiments. FIG. 46(e) Confocal microscopy images of XPA-1 cell at prophase (upper panel), pro-metaphase control untreated (middle panel) or treated with KG5 (lower panel). Cells were stained for phospho-T210 Plk1 (in green), a tubulin (in red) and DNA (TOPRO-3™ in blue). Thick white arrows indicate localization of pPlk1 at the mitotic spindle pole and narrow white arrows indicate localization of pPlk1 at the kinetochores. Scale bar, 10 p.m. […]

[3] = molecular target: T1, RAF dimerization (BRAF and CRAF); assay: RAF dimerization, immunoblot of BRAF and CRAF immunoprecipitates from A549 cells; type: cell-based
Method: FIG. 11 illustrates immunoblot analysis of BRAF and CRAF immunoprecipitates from A549 cells treated with PD0325901, Sorafenib, L-779450, PLX4720, KG5 or KG1.
as §1

T1 sequence (P04049 whole entry): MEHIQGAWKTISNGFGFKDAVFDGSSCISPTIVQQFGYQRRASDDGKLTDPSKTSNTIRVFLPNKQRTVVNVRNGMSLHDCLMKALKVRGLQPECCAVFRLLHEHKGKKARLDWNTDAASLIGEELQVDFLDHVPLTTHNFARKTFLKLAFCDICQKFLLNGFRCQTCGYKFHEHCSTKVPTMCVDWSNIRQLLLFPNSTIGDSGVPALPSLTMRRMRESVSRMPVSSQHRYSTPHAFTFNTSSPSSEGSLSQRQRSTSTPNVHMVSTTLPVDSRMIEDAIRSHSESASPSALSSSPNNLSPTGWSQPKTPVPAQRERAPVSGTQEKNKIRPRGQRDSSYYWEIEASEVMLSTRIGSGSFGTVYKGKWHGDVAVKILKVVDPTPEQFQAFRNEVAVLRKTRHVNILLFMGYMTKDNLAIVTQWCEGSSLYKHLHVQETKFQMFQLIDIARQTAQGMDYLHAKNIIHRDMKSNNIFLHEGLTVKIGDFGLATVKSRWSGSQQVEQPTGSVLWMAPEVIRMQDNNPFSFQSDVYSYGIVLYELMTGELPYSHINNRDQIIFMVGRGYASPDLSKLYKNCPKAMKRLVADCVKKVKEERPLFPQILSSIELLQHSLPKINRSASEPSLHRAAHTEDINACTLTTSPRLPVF
Sequence of c-Kit (P10721 26-976): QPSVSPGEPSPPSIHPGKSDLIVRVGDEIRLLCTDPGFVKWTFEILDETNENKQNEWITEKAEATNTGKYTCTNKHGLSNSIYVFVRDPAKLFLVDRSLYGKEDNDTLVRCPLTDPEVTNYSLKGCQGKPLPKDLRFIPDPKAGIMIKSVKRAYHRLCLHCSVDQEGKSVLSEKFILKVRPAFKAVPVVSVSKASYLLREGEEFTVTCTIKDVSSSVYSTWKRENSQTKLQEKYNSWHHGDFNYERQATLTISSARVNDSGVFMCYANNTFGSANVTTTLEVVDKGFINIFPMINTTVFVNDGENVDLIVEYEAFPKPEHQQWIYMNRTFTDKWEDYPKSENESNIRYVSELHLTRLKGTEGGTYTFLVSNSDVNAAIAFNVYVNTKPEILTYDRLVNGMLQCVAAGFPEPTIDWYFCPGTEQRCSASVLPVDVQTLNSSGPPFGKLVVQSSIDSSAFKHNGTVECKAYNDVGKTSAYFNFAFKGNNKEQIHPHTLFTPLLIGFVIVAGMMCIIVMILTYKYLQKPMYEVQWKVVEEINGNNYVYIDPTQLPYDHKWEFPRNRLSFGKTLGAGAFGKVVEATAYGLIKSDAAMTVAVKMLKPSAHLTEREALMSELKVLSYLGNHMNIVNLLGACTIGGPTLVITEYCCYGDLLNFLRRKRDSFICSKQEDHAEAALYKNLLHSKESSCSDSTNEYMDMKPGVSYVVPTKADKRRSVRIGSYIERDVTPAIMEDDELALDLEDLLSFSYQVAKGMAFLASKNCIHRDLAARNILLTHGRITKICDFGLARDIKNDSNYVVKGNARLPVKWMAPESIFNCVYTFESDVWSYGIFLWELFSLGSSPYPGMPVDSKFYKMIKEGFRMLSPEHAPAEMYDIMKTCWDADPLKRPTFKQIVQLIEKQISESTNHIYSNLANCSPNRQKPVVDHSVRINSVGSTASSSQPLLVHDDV

For `CSc1nc(N)cc(Oc2ccc(-c3nnc(Nc4cccc(C(F)(F)F)c4)[nH]3)cc2)n1` [KG5], the “inhibition of c-Kit” value (c-Kit) is given as “inhibits”, the RAF dimerization [1] is given as “prevents RAF dimerization” and the “mitotic arrest and cell death” value [2] is given as “mitotic arrest at pro-metaphase followed by cell death”. The “phospho-S338 CRAF” value [2] was “inhibition of phospho-S338 CRAF”, the “Plk1 localization to the spindle pole” value (Plk1) was “no effect on Plk1 localization to the spindle pole” and the “accumulation of active Plk1 at the kinetochores” value (Plk1) was “prevented the subsequent accumulation of active Plk1 at the kinetochores”. The RAF dimerization [3] was “prevents RAF dimerization”.
